What follows are compounds tested against human V1A receptor (Homo sapiens, UniProt P37288) (assay: V1A filter binding assay ([3H]-AVP binding to CHO-hV1A membranes)). Conditions: screen 1.0, [3H]-AVP binding to CHO-hV1A membranes.
Experimental: 1.0 V1A Filter Binding Assay
Receptor binding assays were performed on cellular membranes prepared from CHO cells stably expressing the human V1A receptor, (CHO-hV1A). The CHO-hV1A cell line was kindly provided under a licensing agreement by Marc Thibonnier, Dept. of Medicine, Case Western Reserve University School of Medicine, Cleveland, Ohio. CHO-hV1A cells were routinely maintained at 37° C. in humidified atmosphere with 5% CO2 in DMEM/Hams F12 nutrient mix supplemented with 10% fetal bovine serum, 2 mM L-glutamine, 15 mM HEPES and 400 μg/ml G418. For bulk production of cell pellets, adherent CHO-hV1A cells were grown to confluency of 90-100% in 850 cm^2 roller bottles containing a medium of DMEM/Hams F12 Nutrient Mix supplemented with 10% fetal bovine serum, 2 mM L-glutamine and 15 mM HEPES. Confluent CHO-hV1A cells were washed with phosphate-buffered saline (PBS), harvested into ice cold PBS and centrifuged at 1,000 rpm. Cell pellets were stored at −80° C. until use. Cell pellets were thawed on ice and homogenised in membrane preparation buffer consisting of 50 mM Tris-HCl, pH 7.4, 5 mM MgCl2 and supplemented with a protease inhibitor cocktail, (Roche). The cell homogenate was centrifuged at 1000 rpm, 10 min, 4° C. and the supernatant was removed and stored on ice. The remaining pellet was homogenised and centrifuged as before. The supernatants were pooled and centrifuged at 25,000×g for 30 min at 4° C. […] Protein concentration was determined using Bradford reagent and BSA as a standard.
Protein linearity followed by saturation binding studies were performed on each new batch of membrane. […] Saturation binding studies were then performed using various concentrations of [^3H]-arginine vasopressin, [^3H]-AVP (0.05 nM-100 nM) and the Kd and Bmax determined.
Compounds were tested for their effects on [^3H]-AVP binding to CHO-hV1A membranes, (^3H-AVP; specific activity 65.5 Ci/mmol; NEN Life Sciences). […] The plates were sealed and counted on a TopCount Microplate Scintillation Counter (Packard Instruments). Non-specific binding (NSB) was determined using 1 μM unlabelled d(CH2)5Tyr(Me)AVP ([β-mercapto-β,β-cyclopentamethylenepropionyl,0-Me-Tyr^2,Arg^8]-vasopressin) (βMCPVP), (Sigma). The radioligand binding data was analysed using a four parameter logistic equation with the min forced to 0%. […] Specific binding was calculated by subtracting the mean NSB cpm from the mean Total cpm. For test compounds the amount of ligand bound to the receptor was expressed as % bound=(sample cpm−mean NSB cpm)/specific binding cpm×100. […] The inhibitory dissociation constant (Ki) was calculated using the Cheng-Prusoff equation: Ki=IC50/(1+[L]/Kd) where [L] is the concentration of ligand present in the well and Kd is the dissociation constant of the radioligand obtained from Scatchard plot analysis. […]

Sequence of human V1A receptor (P37288 whole entry): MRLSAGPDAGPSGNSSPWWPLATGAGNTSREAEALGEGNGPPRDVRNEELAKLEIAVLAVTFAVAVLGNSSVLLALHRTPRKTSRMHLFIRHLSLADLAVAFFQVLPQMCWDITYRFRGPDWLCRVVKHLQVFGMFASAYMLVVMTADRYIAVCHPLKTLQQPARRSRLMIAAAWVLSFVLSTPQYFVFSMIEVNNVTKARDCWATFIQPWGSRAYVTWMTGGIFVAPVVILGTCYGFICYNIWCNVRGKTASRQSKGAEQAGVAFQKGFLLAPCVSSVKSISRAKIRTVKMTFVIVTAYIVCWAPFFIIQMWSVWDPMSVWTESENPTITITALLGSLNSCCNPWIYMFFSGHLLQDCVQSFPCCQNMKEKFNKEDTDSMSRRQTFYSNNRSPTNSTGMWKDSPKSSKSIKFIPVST

`O=C(c1ccc(C(F)F)cc1)N1CCC(c2nnc(Cn3nccn3)n2-c2ccc(Cl)cc2)CC1` [Example 206, {4-[4-(4-Chloro-phenyl)-5-[1,2,3]triazol-2-ylmethyl-4H-[1,2,4]triazol-3-yl]-piperidin-1-yl}-(4-difluoromethyl-phenyl)-methanone] and `O=C(c1cc(F)cc(F)c1)N1CCC(c2nnc(Cn3nccn3)n2-c2ccc(Cl)cc2)CC1` [Example 165, {4-[4-(4-Chloro-phenyl)-5-[1,2,3]triazol-2-ylmethyl-4H-[1,2,4]triazol-3-yl]-piperidin-1-yl}-(3,5-difluoro-phenyl)-methanone] are within 1.5-fold of each other in Ki: 2.43 nM for the first, 2.98 nM for the second.

Going from `O=C(c1cc(Cl)ccc1F)N1CCC(c2nnc(Cn3nccn3)n2-c2ccc(Cl)cc2)CC1` [Example 399, (5-Chloro-2-fluoro-phenyl)-{4-[4-(4-chloro-phenyl)-5-[1,2,3]triazol-2-ylmethyl-4H-[1,2,4]triazol-3-yl]-piperidin-1-yl}-methanone] to `O=C(c1n[nH]c2ccccc12)N1CCC(c2nnc(Cn3nccn3)n2-c2ccc(Cl)cc2)CC1` [Example 405, {4-[4-(4-Chloro-phenyl)-5-[1,2,3]triazol-2-ylmethyl-4H-[1,2,4]triazol-3-yl]-piperidin-1-yl}-(1H-indazol-3-yl)-methanone], the Ki falls from 1.99 nM to 1.11 nM (1.8-fold). The second binds more tightly here.
